The target of experiment [1] is T1, sEH (Homo sapiens, UniProt P34913).
T1 construct: purchased Cayman Chemical Company 10011669
T1 sequence (P34913 1-555): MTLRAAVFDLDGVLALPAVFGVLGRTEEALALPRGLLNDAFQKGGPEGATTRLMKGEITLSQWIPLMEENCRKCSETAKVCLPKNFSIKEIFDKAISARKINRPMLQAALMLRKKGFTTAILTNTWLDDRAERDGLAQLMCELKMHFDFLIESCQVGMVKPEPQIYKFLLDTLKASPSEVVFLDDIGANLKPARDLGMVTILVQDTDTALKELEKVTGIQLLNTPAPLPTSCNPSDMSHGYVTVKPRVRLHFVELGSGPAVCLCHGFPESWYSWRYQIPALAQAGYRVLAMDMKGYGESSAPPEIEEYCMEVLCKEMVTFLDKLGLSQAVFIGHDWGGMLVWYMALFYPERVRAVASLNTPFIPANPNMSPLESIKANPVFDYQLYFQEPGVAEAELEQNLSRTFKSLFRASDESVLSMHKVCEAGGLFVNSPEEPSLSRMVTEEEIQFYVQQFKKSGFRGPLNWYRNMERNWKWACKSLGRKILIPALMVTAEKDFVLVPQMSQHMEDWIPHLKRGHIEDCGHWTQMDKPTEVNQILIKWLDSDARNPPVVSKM
Nature of the experiment: sEH inhibition assay with PHOME fluorescent substrate. The following applies: for inhibition at 100 µM: compound at 100 µM, read-out: Inhibition of Compounds on sEH, 100 µM(%). It is filed as biochemical.

Experiment [2] concerns the target T1, sEH. Nature of the experiment: sEH kinetic assay (Lineweaver-Burk and Dixon plots). The note with it: PHOME 5–80 µM; for Ki: calculated from Dixon plots; for Type of inhibition: Lineweaver-Burk plots. It is filed as biochemical.
The mark [3] stands for this setting: PHOME substrate, mean ± SD (n = 3).
[4] abbreviates: PHOME substrate, mean ± SD (n = 3), read-out: Inhibition of Compounds on sEH, IC50.

Here are results for seven molecules from paper PMC7504814, “Coumarin and Moracin Derivatives from Mulberry Leaves (Morus alba L.) with Soluble Epoxide Hydrolase Inhibitory Activity” (Molecules, 2020).

Like-named read-outs stand apart in the source and are kept apart here.

Turning to `O=c1ccc2cc(O)c(O)cc2o1` [Compound 1, aesculetin], inhibition in experiment [1] was half-maximal at 6.9 ± 0.5 µM (IC50). Further, the inhibition at 100 µM in experiment [1] (setting [3]) worked out at 100%. Also, the Ki in experiment [2] was 1.2 µM.

With `COc1cc2ccc(=O)oc2cc1O` [Compound 2, scopoletin], the half-maximal inhibitory concentration (IC50) in experiment [1] (setting [4]) is 0.2 ± 0.1 µM. Moreover, in experiment [1] (setting [3]), the inhibition at 100 µM was 100%. In experiment [2], the Type of inhibition entry is listed as “competitive” and the Ki was 0.3 µM.

As to `COc1cc2ccc(=O)oc2cc1OC1OC(CO)C(O)C(O)C1O` (stereo not drawn) [Compound 3], the IC50 in experiment [1] (setting [4]) came out at 15.9 ± 0.4 µM. The inhibition at 100 µM in experiment [1] (setting [3]) stood at 100%. Besides, in experiment [2], the Type of inhibition entry is given as “competitive” and the inhibition constant Ki is 5.4 µM.

As for `COc1cc(O)cc(-c2cc3cc(O)c(OC)cc3o2)c1` [Compound 4, moracin B], the IC50 in experiment [1] (setting [4]) came to 1.1 ± 0.1 µM. Also, the inhibition at 100 µM in experiment [1] (setting [3]) was 100%. Further, in experiment [2], the Type of inhibition result is given as “competitive” and the Ki is 1 µM.

Take `COc1cc2cc(-c3cc(O)cc(O)c3)oc2cc1O` [Compound 5, moracin J]: in experiment [1] (setting [4]), the IC50 is 1.2 ± 0.1 µM. Besides, the inhibition at 100 µM in experiment [1] (setting [3]) stood at 100%. Moreover, in experiment [2], the Type of inhibition result was “mixed types of inhibitors” and the Ki was 2.1 µM.

In the case of `Oc1cc(O)cc(-c2cc3ccc(O)cc3o2)c1` [Compound 6, moracin M], the IC50 in experiment [1] (setting [4]) worked out at 9.9 ± 2.2 µM. In experiment [1] (setting [3]), the inhibition at 100 µM is 100%. In experiment [2], the Type of inhibition entry is recorded as “competitive” and the Ki was 1.5 µM.

Turning to `OCC1OC(Oc2cc(O)cc(-c3cc4ccc(O)cc4o3)c2)C(O)C(O)C1O` (stereo not drawn) [Compound 7, moracin M 3’-O-β-glucopyranoside], the IC50 in experiment [1] (setting [4]) turned out to be 7.7 ± 0.1 µM. Also, the inhibition at 100 µM in experiment [1] (setting [3]) stood at 100%. For the same molecule, in experiment [2], the Type of inhibition result is recorded as “mixed types of inhibitors” and the Ki was 5.8 µM.
